Test [1] deals with human serotonin transporter (Homo sapiens (Human), UniProt P31645). Nature of the test: Serotonin functional uptake assay, recombinant human transporter in HEK-293 cells. In kind it is cell-based. The conditions noted are these: Human serotonin transporter uptake; read-out: hSERT IC50.
The target in test [2] is human dopamine transporter (Homo sapiens (Human), UniProt Q01959). Nature of the test: Dopamine functional uptake assay, recombinant human transporter in CHO-K1 or HEK293 cells. Conditions: read-out: hDAT IC50. The class given is cell-based.

Each structure is given as a SMILES string. Some results are limits rather than exact numbers.

human dopamine transporter, sequence (Q01959 whole entry): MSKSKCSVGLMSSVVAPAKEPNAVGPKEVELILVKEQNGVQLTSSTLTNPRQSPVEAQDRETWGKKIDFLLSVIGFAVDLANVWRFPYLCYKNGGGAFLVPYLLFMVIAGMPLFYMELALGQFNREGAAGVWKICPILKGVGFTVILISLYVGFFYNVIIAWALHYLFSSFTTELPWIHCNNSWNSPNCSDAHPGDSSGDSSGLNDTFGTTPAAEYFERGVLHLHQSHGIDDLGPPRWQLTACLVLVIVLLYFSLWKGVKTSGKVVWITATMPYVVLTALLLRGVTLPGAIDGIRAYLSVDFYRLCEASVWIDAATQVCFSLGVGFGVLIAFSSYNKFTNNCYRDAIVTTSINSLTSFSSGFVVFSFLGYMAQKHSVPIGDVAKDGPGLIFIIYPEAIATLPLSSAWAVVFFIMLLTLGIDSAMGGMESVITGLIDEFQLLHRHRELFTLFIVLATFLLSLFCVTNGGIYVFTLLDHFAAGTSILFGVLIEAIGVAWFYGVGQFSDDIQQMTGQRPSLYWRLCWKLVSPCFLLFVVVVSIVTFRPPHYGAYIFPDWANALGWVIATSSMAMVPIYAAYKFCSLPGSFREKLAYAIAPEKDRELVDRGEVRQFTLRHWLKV
human serotonin transporter, sequence (P31645 whole entry): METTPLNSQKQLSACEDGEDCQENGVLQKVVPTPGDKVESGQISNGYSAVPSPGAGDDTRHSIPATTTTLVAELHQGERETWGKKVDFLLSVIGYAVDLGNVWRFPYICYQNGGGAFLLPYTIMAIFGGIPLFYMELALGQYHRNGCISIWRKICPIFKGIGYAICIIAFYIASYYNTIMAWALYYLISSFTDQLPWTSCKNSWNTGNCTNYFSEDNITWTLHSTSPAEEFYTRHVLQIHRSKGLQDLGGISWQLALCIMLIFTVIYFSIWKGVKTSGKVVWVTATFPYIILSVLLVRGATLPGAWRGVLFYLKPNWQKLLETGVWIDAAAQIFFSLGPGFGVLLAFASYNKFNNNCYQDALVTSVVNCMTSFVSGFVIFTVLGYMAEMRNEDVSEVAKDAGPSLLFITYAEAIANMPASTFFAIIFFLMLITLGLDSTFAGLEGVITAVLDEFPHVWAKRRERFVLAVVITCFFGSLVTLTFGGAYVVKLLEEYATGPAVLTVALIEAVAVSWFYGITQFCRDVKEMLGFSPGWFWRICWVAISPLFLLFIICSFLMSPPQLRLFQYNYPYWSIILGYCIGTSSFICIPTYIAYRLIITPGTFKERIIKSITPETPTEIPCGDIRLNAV

As to `CN(C)C[C@]1(c2ccc(Cl)cc2)CCCC[C@H]1O` (single isomer, unassigned) [154 E1, trans-2-(4-chlorophenyl)-2-((dimethylamino)methyl)cyclohexanol], the IC50 in test [1] came out at 2170 nM; in test [2], 795 nM.
For `CN(C)C[C@]1(c2ccc(Cl)cc2)CCCC[C@H]1O` (single isomer, unassigned) [154 E2, trans-2-(4-chlorophenyl)-2-((dimethylamino)methyl)cyclohexanol], the results for the IC50 in test [1] and in test [2] were 439 nM and 888 nM, respectively.
In the same order, the values of `COc1ccc([C@@]2(CN(C)C)CCCC[C@H]2O)cc1` (single isomer, unassigned) [156 E1, trans-2-((dimethylamino)methyl)-2-(4-methoxyphenyl)cyclohexanol] are 76 nM and 1310 nM.
For `COc1ccc([C@@]2(CN(C)C)CCCC[C@H]2O)cc1` (single isomer, unassigned) [156 E2, trans-2-((dimethylamino)methyl)-2-(4-methoxyphenyl)cyclohexanol], the IC50 in test [1] came out at 653 nM; in test [2] it was 4000 nM.
Taken in the same sequence, the figures for `CN(C)C[C@@]1(c2ccc(Cl)c(F)c2)CCCC[C@H]1O` (single isomer, unassigned) [157 E1, Cis-2-(4-chloro-3-fluorophenyl)-2-((dimethylamino)methyl)cyclohexanol] were 1300 nM and 575 nM.
In the same order, the values of `CN(C)C[C@@]1(c2ccc(Cl)c(F)c2)CCCC[C@H]1O` (single isomer, unassigned) [157 E2, Cis-2-(4-chloro-3-fluorophenyl)-2-((dimethylamino)methyl)cyclohexanol] are 290 nM and 849 nM.
Taken in the same sequence, the figures for `CN(C)C[C@]1(c2ccc(Cl)c(F)c2)CCCC[C@H]1O` (single isomer, unassigned) [158 E1, Trans-2-(4-chloro-3-fluorophenyl)-2-((dimethylamino)methyl)cyclohexanol] were 8440 nM and 945 nM.
As to `CN(C)C[C@]1(c2ccc(Cl)c(F)c2)CCCC[C@H]1O` (single isomer, unassigned) [158 E2, Trans-2-(4-chloro-3-fluorophenyl)-2-((dimethylamino)methyl)cyclohexanol], the IC50 in test [1] was determined as 2990 nM; in test [2], 5020 nM.
Taken in the same sequence, the figures for `CN(C)C[C@@]1(c2ccc(C(F)(F)F)cc2)CCCC[C@H]1O` (single isomer, unassigned) [159 E1, cis-2-((dimethylamino)methyl)-2-(4-(trifluoromethyl)phenyl)cyclohexanol] were 1260 nM and 3800 nM.
In the same order, the values of `CN(C)C[C@@]1(c2ccc(C(F)(F)F)cc2)CCCC[C@H]1O` (single isomer, unassigned) [159 E2, cis-2-((dimethylamino)methyl)-2-(4-(trifluoromethyl)phenyl)cyclohexanol] are 42 nM and 2310 nM.
Taken in the same sequence, the figures for `CN(C)C[C@]1(c2ccc(C(F)(F)F)cc2)CCCC[C@H]1O` (single isomer, unassigned) [160 E1, trans-2-((dimethylamino)methyl)-2-(4-(trifluoromethyl)phenyl)cyclohexanol] were 7190 nM and 9720 nM.
For `CN(C)C[C@]1(c2ccc(C(F)(F)F)cc2)CCCC[C@H]1O` (single isomer, unassigned) [160 E2, trans-2-((dimethylamino)methyl)-2-(4-(trifluoromethyl)phenyl)cyclohexanol], the IC50 is 5090 nM in test [1] and above 10000 nM in test [2].
In the case of `CO[C@@H]1CCC[C@@](CN)(c2ccc(Cl)c(Cl)c2)C1` [Compound 192], the figures for the IC50 in test [1] and in test [2] were above 10000 nM and 1960 nM, respectively.
Taken in the same sequence, the figures for `CNC[C@]1(c2ccc(Cl)c(Cl)c2)CC[C@H](O)CC1` [Compound 287, cis-4-(3,4-dichlorophenyl)-4-((methylamino)methyl)cyclohexanol] were 1040 nM and 192 nM.

Broadly, the IC50 is the concentration needed to halve the response being measured.

Source of the values: patent publication US10562878B2, “Cycloalkylamines as monoamine reuptake inhibitors” (Sunovion Pharmaceuticals Inc., priority 2006, dated 2020).
